Usually melting point stands for the temperature, or range, at which the solid turns liquid. The compound `COC(=O)c1cc([N+](=O)[O-])ccc1-c1c(OC)cccc1OC` displayed a melting point of 157 °C.
Compound `CCCCCC(C(=O)O)c1ccc(Cl)cc1Cl` (centres undefined) returned a melting point of 65 to 68 °C.
As for `O=C1Nc2ccc(F)c(F)c2C(=O)N2CC[C@@H]12`, the figure is > 250 °C.
Compound `c1ccc(Nc2ncc3cc4ccccc4n3n2)cc1` came in with a melting point of 188 to 193 °C.
As for `CCCCCN(CCC12CC3CC(CC(C3)C1)C2)C(=O)NCCCc1ccccn1`, the figure is 84.4 to 85.7 °C; as for `Clc1nc(N2CCOCC2)nc(-n2cnc3ccccc32)n1`, 201 to 203 °C.
In turn, `CC(C)C1Cc2ccccc2P1c1ccccc1P1c2ccccc2CC1C(C)C` (single isomer, unassigned; (+)) gave a melting point of 70 to 71 °C.
Compound `CCCCCCCNC(=O)Nc1ccccc1C(=O)NCCn1cnc(-c2ccccc2)c1-c1ccccc1` gave a melting point of 170 °C.
As for `CCOCc1nc2c(N)nc3cc(C=O)ccc3c2n1CC(C)(C)O`, the figure is 203 to 205 °C; as for `CC(C)(C(=O)O)c1ccc(CCNC(=O)c2ccc(Cl)cc2)cc1`, 234 to 235 °C.
Compound `COc1cccc(Oc2ccc([C@@H]3CCCN4CCS(=O)(=O)N=C34)cc2)c1` gave a melting point of 139 to 140 °C.
As for `CC1CCC(=O)N1CC(=O)NCCN1C(C)CCCC1C` (centres undefined), the figure is 115 to 116 °C; as for `CNc1ncc(-c2ccc(C)cc2)c(-c2ccc(C)cc2)n1`, 160 to 162 °C; as for `Cc1nn(-c2c(Cl)cc(C(F)(F)F)cc2Cl)nc1C(=O)O`, 185 to 186 °C.
With `CCC1CCCCN1C(=O)C=Cc1c(-c2cccc(N)c2)nn2ccccc12` (centres undefined), the melting point lay within 150 to 151 °C.
As for `CC(C)c1ccc(N(Cc2ccc(O)cc2)C(=O)C2CCCc3ccccc32)cc1` (centres undefined), the figure is 156 °C; as for `CC1Nc2ccc(-c3coc(C#N)c3)cc2C(C)(C)O1` (centres undefined), 116 to 118 °C; as for `COc1ccc(NC(=O)c2ccccc2F)cc1`, 83.1 to 84.3 °C.
With `C/C(=C\CNC(=O)c1ccccc1)c1ccccc1`, the melting point amounted to 139 °C.
As for `O=C(NCCc1ccccn1)c1ccccc1-c1ccccc1CN1C(=O)c2ccccc2C1=O`, the figure is 155 °C.
`COC(=O)c1ccccc1S(=O)(=O)NC(=Nc1nc(C)cc(OC)n1)SC` showed a melting point of 143 to 144 °C.
Regarding `CC1NC(=O)NN=C1c1ccc2c(c1)C(C)(C)C(=O)N2` (centres undefined), the melting point was 292 °C.
As for `O=c1[nH]c2cccnc2c2nc(-c3ccccc3)cn12`, the figure is 329 to 330 °C; as for `CC1CNc2nc3c(N)nc4ccccc4c3n21` (centres undefined), 265 to 273 °C; as for `Cc1cn(-c2cccc([N+](=O)[O-])c2)cn1`, 119 to 120 °C.
`CC(=O)OCc1cc([N+](=O)[O-])ccc1N1C(=O)c2ccc(Cl)cc2C1=O` displayed a melting point of 124 to 125 °C.
`CCOC(=O)N1CCC(C#N)(NC(=O)C(CC2CCCCC2)NC(=O)N2CCOCC2)CC1` (centres undefined) came in with a melting point of 140 to 143 °C.
As for `COc1cc(Nc2nccc(-c3ccc(N4CCCC(CO)C4)nc3)n2)cc(OC)c1OC` (centres undefined), the figure is 183 to 184 °C; as for `Cc1nc(C(F)(F)F)ccc1/C=C/C(=O)Nc1ccc2ncsc2c1`, 196 °C; as for `N#Cc1c(N2CCCCC2)cc(-c2ccc(F)cc2)c2c1-c1ccccc1C2`, 176 to 178 °C.
As for `Cc1c[nH]c2c(C=O)cccc12`, the figure is 77 to 79 °C; as for `CCCOc1ccccc1-c1nc2nc(NCCCSC)ncc2c(=O)[nH]1`, 173 to 174 °C; as for `CC(C)CCCC(C)C1CCC2C3CC=C4CC(NC(=O)CCN(C)C(=O)OC5c6ccccc6-c6ccccc65)CCC4(C)C3CCC12C` (centres undefined), 124 to 128 °C.
As for `O=C(NC(Cc1ccccc1)C(=O)O)c1ccc2cc(Oc3ccccc3)ccc2c1` (centres undefined), the figure is 179 to 180 °C; as for `COC(C)(C)C(C#N)=NO`, 102 to 104 °C; as for `O=C(Nc1ccc(F)nc1)OCC(Cl)(Cl)Cl`, 114 to 115 °C.
`CCOC(=O)c1c(NC)c(N=O)c2ccccn12` showed a melting point of 156 to 157 °C.
With `CN(C(=O)CN(C(=O)CNC(=O)Nc1cccc(O)c1)c1ccccc1)c1ccccc1`, the melting point stood at 180 °C.
`N#Cc1sc(N)c(C#N)c1Cl` yielded a melting point of 259 °C.
As for `Cc1c(C)c2c(c(C)c1NC(=O)C(O)C(C)(C)C)C(c1ccc(C(C)C)cc1)CO2` (centres undefined), the figure is 165 to 166 °C; as for `O=S(=O)(c1[nH]c(-c2ccc(Cl)cc2)c(Br)c1Br)C(F)(F)F`, 165 to 168 °C.
As for `CCCn1c(=O)c2c(nc(/C=C/c3ccc(Cl)cc3)n2C)n(CCC)c1=O`, the figure is 175 to 187 °C.
`CCC1(C)COP(=O)(Cc2ccc(N)cc2)OC1` (centres undefined) returned a melting point of 130 to 131 °C.
As for `c1cncc(C2CCCCS2)c1` (racemic), the figure is 49 °C.
As for `COC(=O)c1cncn1C1c2ccccc2C(OC)(OC)C1(C)C` (centres undefined), the figure is 140 to 141 °C; as for `O=C(O)COc1ccc2c(-c3ccccc3Cl)noc2c1Cl`, 165 to 168 °C; as for `CC(=O)Nc1ccnn(C)c1=O`, 152 to 153 °C.
As for `Nc1nc2nc(NCCCN3CCOCC3)ncc2cc1-c1c(Cl)cccc1Cl`, the figure is 224 to 230 °C; as for `O=c1[nH]c2ccc(C(F)(F)F)cc2c(-c2cc(Cl)ccc2O)c1NS(=O)(=O)c1ccccc1`, 262 to 265 °C.
For the compound `COc1ccc(-c2cc(O)ccc2-c2ncnc(-c3ccccc3)n2)cc1`, the melting point lay in the range of 177 to 178 °C.
As for `CCOCC1(O)c2ccccc2CCc2cc(OC)c(OC)cc21` (centres undefined), the figure is 98 to 100 °C; as for `Cn1cc(C(=O)c2ccccn2)cc1C(=O)c1ccc(Cl)cc1`, 138 to 139 °C; as for `CN(CCOc1ccc(CC(Sc2ccccc2)C(=O)O)cc1)c1nc2ccccc2o1` (centres undefined), 144 to 147 °C.
On to `O=C(NCCOc1ccc(CC(Oc2ccccc2)C(=O)O)cc1)c1ccc(-c2ccc(F)cc2)cc1` (centres undefined), for which the melting point was 195 to 196 °C.
Take `CCc1cc2c(s1)-n1nc(C(N)=O)nc1C(OC)N=C2c1ccccc1Cl` (centres undefined): the melting point was 200 to 201 °C.
`CCOC(=O)COc1ccc([N+](=O)[O-])cc1`: the melting point fell in the range of 75 to 76 °C.
As for `CNC(=O)N=c1ccc(C)cn1-c1cccc(C(F)(F)F)c1`, the figure is 114 °C.
`CC(=O)N1C(=O)NC(=O)CC1C` (centres undefined) yielded a melting point of 107 to 109 °C.
As for `Nc1ncnc2c1ncn2Cc1nc2cccc(F)c2c(=O)n1-c1ccccc1Cl`, the figure is 159 to 172 °C; as for `O=C1Cc2cccc(-c3ccccc3)c2N1`, 167 to 169 °C.
As for `Cc1cc2c(c(C3=NNC(=O)CC3C)c1)OCC(=O)N2` (centres undefined), the figure is 252 to 254 °C.
As for `COc1ccc(S(=O)(=O)C(C=CC(C)C)(CC=C(C)C)C(=O)NO)cc1` (centres undefined), the figure is 93 to 96 °C.
`Cc1nc(-c2ccc(F)cc2)sc1C(=O)NCc1ccc(OC(C)(C)C(=O)O)cc1` returned a melting point of 159 °C.
As for `CCN(c1ccc(Br)cc1)S(=O)(=O)C(F)(F)F`, the figure is 59 to 60 °C; as for `CC1(C)OC(=O)C(C(=O)Nc2ccc(C(F)(F)F)cc2)=C(O)O1`, 206 to 208 °C.
As for `CCNC(=O)c1cccc(NCC(=O)NCCc2ccc(OC)c(OC)c2)c1`, the figure is 99 to 101 °C; as for `COC(=O)c1ccc(Sc2ccccc2)cc1Sc1ccccc1`, 124 °C.
As for `O=C1C=CC2=C(C1CC1CC1)n1ccc3c1=C(CCC=3)c1nncn12` (centres undefined), the melting point was 99 °C.
`N#Cc1cccc(NCC(=O)N2CCC(Cc3ccc(F)cc3)CC2)c1` registered a melting point of 138 to 142 °C.
As for `Cc1cc(OCc2coc(C=Cc3ccc(OC(F)(F)F)cc3)n2)ccc1COCCn1ccnn1`, the figure is 84 to 85 °C; as for `COc1ncc(F)c2n[nH]c(=S)n12`, 166 °C; as for `Cc1cc(C(N)=O)ncc1C(c1c(F)ccc(F)c1F)S(=O)(=O)CCC(C)(F)F` (centres undefined), 165 to 166 °C.
Regarding `C=C1CCCN(C(=O)c2ccc(NC(=O)c3ccccc3C)cc2)c2ccccc21`, the melting point was 216 to 217 °C.
As for `COc1ccc(OC)c(Nc2nc(-c3cccc([N+](=O)[O-])c3)cs2)c1`, the figure is 154 °C; as for `Cc1cccc(C)c1-n1cnc(NCC(F)(F)F)nc1=O`, 212 to 213 °C.
`CCOC(=O)c1nc(-c2cccc([N+](=O)[O-])c2)[nH]c1-c1ccc(OC)cc1` returned a melting point of 208 to 210 °C.
As for `CCOc1nn(-c2ccc(C(F)(F)F)cn2)cc1CCCOc1c(CC(=O)O)cccc1OC`, the figure is 122 to 123 °C.
As for `CCOC(=O)c1cnc2nc(C(=O)O)c(OCC)cc2c1O`, the figure is 270 to 272 °C.
On to `O=C(O)C1CN(S(=O)(=O)c2ccc3cc(Br)ccc3c2)CCN1C(=O)C1CCN(c2ccncc2)CC1` (centres undefined), for which the melting point was in the range of 216 to 222 °C.
In the case of `COC(=O)c1cc(N(C)C)c2cc(Cc3ccc(F)cc3)cnc2c1O`, the melting point lay in the range of 62 to 63 °C.
Regarding `C#Cc1cc([C@@H](C)NC(=O)Nc2ccc(C(C)(C)C)cc2)ccc1NS(C)(=O)=O`, the melting point fell in the range of 88.4 to 89.4 °C.
As for `CCN(CCCP(=O)(O)O)S(=O)(=O)C(F)(F)C(F)(F)C(F)(F)C(F)(F)F`, the figure is 138 to 140 °C; as for `C[C@@H]1C(=O)C[C@H]2C[C@@H]1OO[C@@]2(C)/C=C\c1ccc(C(C)(C)C)cc1`, 101 °C.
Take `COc1cc(C=CC(=O)CSc2ccccc2)ccc1O`: the melting point fell in the range of 78 to 80 °C.
As for `COc1cc2c(cc1OC(C)=O)C1Cc3c(Cl)cc(OC)c(OC(C)=O)c3CN1CC2` (single isomer, unassigned; (-)), the figure is 202 to 203 °C; as for `CN1C(=O)N(CC(COc2ccc(-c3ccc(Cl)cc3)cc2)N(O)C=O)C(=O)C1(C)C` (centres undefined), 124 to 125 °C; as for `CCOC(=O)C(Br)=NNc1ccccc1`, 82 to 83 °C.
As for `O=C1N=C(N2CCOCC2)SC1=Cc1cccc(-c2cc(F)c(O)c(C34CC5CC(CC(C5)C3)C4)c2)c1`, the figure is 293 to 295 °C.
`Cc1ncc(CCCCC(=O)O)s1` came in with a melting point of 75 °C.

The record behind these values is a melting point compilation (Tetko et al.; mined from patent text by program, amines drawn as free bases though some values may be those of a salt).
